The values that follow come from US7531482B2, “Thieno-pyrimidine compounds having fungicidal activity” (Dow AgroSciences LLC, priority 2005, dated 2009).

Type in all cases: in vivo
The subject of assay [1] is Colletotricum lagenarium. Put plainly: Cucumber Anthracnose (COLLLA) whole-plant disease control test. The settings on record: Cucumis sativus, foliar; for pest or weed control at 200 ppm: 200 ppm applied to foliage of cucumber, inoculated one day after treatment, read-out: COLLLA disease control.
In assay [2] the test system is Magnaporthe grisea=Pyricularia oryzae. Put plainly: whole plant or invertebrate. Particulars: Pyricularia oryzae, foliar; for pest or weed control at 200 ppm: read-out: PYRIOR disease control, 200 ppm applied to foliage of rice, inoculated one day after treatment; for pest or weed control at 8.3 ppm: read-out: PYRIOR disease control, 8.3 ppm (footnote c), rice foliage.

Assay [3] has as its system Puccinia recondita tritici. Briefly: Leaf Rust of Wheat (PUCCRT) whole-plant disease control test. Particulars: Puccinia recondita, foliar; for pest or weed control at 200 ppm: 200 ppm applied to foliage of wheat, inoculated one day after treatment, read-out: PUCCRT disease control.
Assay [4] concerns Erysiphe cichoracaerum. Briefly: Cucumber Powdery Mildew (ERYSCI) whole-plant disease control test. The settings on record: Erysiphe, foliar; for pest or weed control at 200 ppm: 200 ppm applied to foliage of cucumber, inoculated one day after treatment, read-out: ERYSCI disease control.
Assay [5] has as its system Leptosphaeria nodorum. Put plainly: Glume Blotch of Wheat (LEPTNO) whole-plant disease control test. The settings on record: Parastagonospora nodorum, foliar; for pest or weed control at 200 ppm: 200 ppm applied to foliage of wheat, inoculated one day after treatment, read-out: LEPTNO disease control; for pest or weed control at 75 ppm: 75 ppm (footnote b), wheat foliage.

Assay [6] relates to Mycosphaerella graminicola=Septoria tritici. Briefly: Speckled Leaf Blotch of Wheat (SEPTTR) whole-plant disease control test. Particulars: Mycosphaerella, foliar, 75 ppm applied to foliage of wheat; read-out: SEPTTR disease control.
For assay [7], the system named is Phytophthora infestans. Put plainly: whole plant or invertebrate. The settings on record: Phytophthora infestans, in Solanum lycopersicum, foliar; for pest or weed control at 200 ppm: read-out: PHYTIN disease control, 200 ppm applied to foliage of tomato, inoculated one day after treatment.
The mark [8] stands for this setting: 100 ppm (footnote a), cucumber foliage.

On to `Cc1cc(Oc2ccc(CCNc3ncnc4scc(Cl)c34)cc2)cnc1S(C)(=O)=O` [Compound 50], for which the pest or weed control at 200 ppm lay in the range of 50 to 79% in assay [1]; 80 to 100% in assay [2]; 80 to 100% in assay [3]; 0 to 49% in assay [4]; 50 to 79% in assay [5]; 80 to 100% in assay [7]. In addition, the pest or weed control at 75 ppm in assay [6] is 50 to 79%.

In the case of `Cc1nnsc1Oc1ccc(CCNc2ncnc3scc(Cl)c23)cc1` [Compound 114], the pest or weed control at 200 ppm in assay [1] lay in the range of 50 to 79%; in assay [2], 80 to 100%; in assay [3] it was 80 to 100%; in assay [4], 80 to 100%; in assay [5], 50 to 79%; in assay [7], 80 to 100%. Also, the pest or weed control at 75 ppm in assay [6] lay in the range of 50 to 79%.

Turning to `N#Cc1ccc(Oc2ccc(CCNc3ncnc4scc(Cl)c34)cc2)nc1` [Compound 4], the pest or weed control at 200 ppm in assay [1], in assay [2], in assay [3], in assay [4], in assay [5] and in assay [7] was 80 to 100% in each case. Besides, the pest or weed control at 75 ppm in assay [6] fell in the range of 50 to 79%.

In the case of `[O-][n+]1ccccc1Oc1ccc(CCNc2ncnc3scc(Cl)c23)cc1` [Compound 19], the pest or weed control at 200 ppm in assay [1] is 0 to 49%; in assay [2] it was 80 to 100%; in assay [3] it was 80 to 100%; in assay [4], 50 to 79%; in assay [5], 0 to 49%; in assay [7], 80 to 100%. The pest or weed control at 75 ppm in assay [6] lay within 50 to 79%.

`O=C(Oc1ccc(CCNc2ncnc3scc(Cl)c23)cc1)c1ccccn1` [Compound 14]: the pest or weed control at 200 ppm fell in the range of 0 to 49% in assay [1]; 80 to 100% in assay [2]; 80 to 100% in assay [3]; 0 to 49% in assay [4]; 50 to 79% in assay [5]; 0 to 49% in assay [7]. For the same compound, the pest or weed control at 75 ppm in assay [6] lay in the range of 0 to 49%.

Consider `FC(F)(F)c1cc(Oc2ccc(CCNc3ncnc4scc(Cl)c34)cc2)cc(C(F)(F)F)n1` [Compound 75], for which the pest or weed control at 200 ppm in assay [1] fell in the range of 80 to 100%; in assay [2], 80 to 100%; in assay [3], 80 to 100%; in assay [4], 80 to 100%; in assay [5], 80 to 100%; in assay [7] it was 0 to 49%. Besides, the pest or weed control at 75 ppm in assay [6] lay within 50 to 79%.

Turning to `N#Cc1nc(F)c(F)c(Oc2ccc(CCNc3ncnc4scc(Cl)c34)cc2)c1F` [Compound 103], the pest or weed control at 200 ppm fell in the range of 50 to 79% in assay [1]; 50 to 79% in assay [2]; 50 to 79% in assay [3]; 0 to 49% in assay [4]; 50 to 79% in assay [5]; 0 to 49% in assay [7]. For the same compound, the pest or weed control at 75 ppm in assay [6] fell in the range of 0 to 49%.

In the case of `N#Cc1ccnc(Oc2ccc(CCNc3ncnc4scc(Br)c34)cc2)c1` [Compound 47], the pest or weed control at 100 ppm in assay [1] (setting [8]) lay in the range of 0 to 49%; in assay [4] (setting [8]) it was 80 to 100%; in assay [7] (read-out: PHYTIN disease control, 100 ppm (footnote a), tomato foliage), 0 to 49%. Also, the pest or weed control at 8.3 ppm lay in the range of 80 to 100% in assay [2] and 80 to 100% in assay [3] (8.3 ppm (footnote c), wheat foliage). The pest or weed control at 75 ppm was in the range of 80 to 100% in assay [5] and 50 to 79% in assay [6].

For `FC(F)(F)c1ccnc(Oc2ccc(CCNc3ncnc4scc(Cl)c34)cc2)n1` [Compound 27], the pest or weed control at 200 ppm in assay [1] lay in the range of 50 to 79%; in assay [2], 80 to 100%; in assay [3], 80 to 100%; in assay [4], 80 to 100%; in assay [5], 0 to 49%; in assay [7], 50 to 79%. Moreover, the pest or weed control at 75 ppm in assay [6] lay within 50 to 79%.

As for `Clc1cccc(Oc2ccc(CCNc3ncnc4scc(Cl)c34)cc2)n1` [Compound 37], the pest or weed control at 200 ppm in assay [1] fell in the range of 80 to 100%; in assay [2] it was 80 to 100%; in assay [3], 80 to 100%; in assay [4], 80 to 100%; in assay [5], 0 to 49%; in assay [7], 0 to 49%. Further, the pest or weed control at 75 ppm in assay [6] was in the range of 50 to 79%.

On to `Clc1csc2ncnc(NCCc3ccc(Oc4ncccn4)cc3)c12` [Compound 17], for which the pest or weed control at 200 ppm in assay [1] was 0 to 49%; in assay [2], 80 to 100%; in assay [3], 80 to 100%; in assay [4], 50 to 79%; in assay [5], 50 to 79%; in assay [7], 80 to 100%. In addition, the pest or weed control at 75 ppm in assay [6] was 50 to 79%.

As to `Cc1cc(OC(F)F)cnc1Oc1ccc(CCNc2ncnc3scc(Cl)c23)cc1` [Compound 70], the pest or weed control at 200 ppm in assay [1] was in the range of 80 to 100%; in assay [2] it was 80 to 100%; in assay [3], 80 to 100%; in assay [4], 0 to 49%; in assay [5], 80 to 100%; in assay [7], 50 to 79%. For the same compound, the pest or weed control at 75 ppm in assay [6] lay in the range of 80 to 100%.

Consider `O=C(Oc1ccc(CCNc2ncnc3scc(Cl)c23)cc1)c1ccc(Cl)nc1` [Compound 15], for which the pest or weed control at 200 ppm lay within 0 to 49% in assay [1]; 80 to 100% in assay [2]; 80 to 100% in assay [3]; 0 to 49% in assay [4]; 50 to 79% in assay [5]; 0 to 49% in assay [7]. Further, the pest or weed control at 75 ppm in assay [6] was 0 to 49%.

In the case of `COc1nc(OC)nc(Oc2ccc(CCNc3ncnc4scc(Cl)c34)cc2)n1` [Compound 26], the pest or weed control at 200 ppm in assay [1] lay in the range of 0 to 49%; in assay [2], 50 to 79%; in assay [3], 80 to 100%; in assay [4], 0 to 49%; in assay [5], 0 to 49%; in assay [7], 0 to 49%. For the same compound, in assay [6], the pest or weed control at 75 ppm fell in the range of 0 to 49%.

As to `CN(C)NC(=O)c1ccc(Oc2ccc(CCNc3ncnc4scc(Cl)c34)cc2)nc1` [Compound 33, 6-{4-[2-(5-Chlorothieno[2,3-d]pyrimidin-4-ylamino)ethyl]phenoxy}nicotinic acid N′,N′-dimethylhydrazide], the pest or weed control at 200 ppm in assay [1] was 50 to 79%; in assay [2] it was 80 to 100%; in assay [3], 80 to 100%; in assay [4] it was 0 to 49%; in assay [5], 0 to 49%; in assay [7], 50 to 79%. Further, the pest or weed control at 75 ppm in assay [6] fell in the range of 0 to 49%.

`Clc1nsc(Oc2ccc(CCNc3ncnc4scc(Cl)c34)cc2)n1` [Compound 120]: the pest or weed control at 200 ppm fell in the range of 0 to 49% in assay [1], 80 to 100% in assay [3], 0 to 49% in assay [4] and 50 to 79% in assay [7]. Moreover, the pest or weed control at 8.3 ppm in assay [2] is 50 to 79%. In addition, the pest or weed control at 75 ppm in assay [5] and in assay [6] was 0 to 49% throughout.

Consider `FC(F)(F)COc1ccnc(Oc2ccc(CCNc3ncnc4scc(Cl)c34)cc2)n1` [Compound 44], for which the pest or weed control at 200 ppm in assay [1] lay within 0 to 49%; in assay [2] it was 80 to 100%; in assay [3], 80 to 100%; in assay [4] it was 50 to 79%; in assay [5], 80 to 100%; in assay [7], 50 to 79%. Further, the pest or weed control at 75 ppm in assay [6] was 80 to 100%.

Consider `COc1cc(C(F)(F)F)cc(Oc2ccc(CCNc3ncnc4scc(Cl)c34)cc2)n1` [Compound 63], for which the pest or weed control at 200 ppm in assay [1] is 50 to 79%; in assay [2], 80 to 100%; in assay [3] it was 80 to 100%; in assay [4] it was 80 to 100%; in assay [5], 0 to 49%; in assay [7], 50 to 79%. For the same compound, in assay [6], the pest or weed control at 75 ppm is 50 to 79%.

As for `Cc1cccc(Oc2ccc(CCNc3ncnc4scc(Cl)c34)cc2)n1` [Compound 85], the pest or weed control at 200 ppm was in the range of 50 to 79% in assay [1]; 80 to 100% in assay [2]; 80 to 100% in assay [3]; 80 to 100% in assay [4]; 80 to 100% in assay [5]; 80 to 100% in assay [7]. The pest or weed control at 75 ppm in assay [6] is 80 to 100%.

Consider `O=[N+]([O-])c1ccc(Oc2ccc(CCNc3ncnc4scc(Cl)c34)cc2)nc1` [Compound 3], for which the pest or weed control at 200 ppm in assay [1] is 50 to 79%; in assay [2], 80 to 100%; in assay [3] it was 80 to 100%; in assay [4], 50 to 79%; in assay [5] it was 50 to 79%; in assay [7], 80 to 100%. In addition, the pest or weed control at 75 ppm in assay [6] is 50 to 79%.
